From patent US20260174780A1, “BISMUTH-THIOL COMPOSITIONS AND METHODS FOR TREATING INFLAMMATORY DISEASES” (Microbion Corporation, priority 2022, published 2026)
“Also recorded” adds a separate entry of the source.

Experiments:
NLRP3 = test: qPCR of NLRP3 in A549 cells; type: cell-based, human; conditions: 0.5-4 μg/mL, 24 hours, compared to untreated cells
Method: (§1) Protocol: A549 cells were grown in tissue culture flasks and a 24-well plate was seeded with 2×10^5 cells/well and incubated at 37° C. and 5% CO2 for 48 hours. Select wells were treated with either 4 μg/mL, 2 μg/mL, 1 μg/mL, or 0.5 μg/mL BisEDT or left untreated as a control and incubated at 37° C. and 5% CO2 for 24 hours. Cell culture supernatant was collected from each well and stored at −20° C. until further analysis. Cells were collected for RNA isolation using Qiagen RNeasy kit using manufacturer's instructions. Briefly, genomic DNA was degraded with DNase (Roche) and samples were incubated at 37° C. for 1 hour followed by 3 μL DNase inactivation reagent (Invitrogen) incubated at 37° C. for 2 minutes. Samples were centrifuged at maximum speed for 5 minutes to remove the inactivation reagent. RNA concentration and quality was evaluated using a Nanodrop. RNA samples were utilized to generate cDNA using cDNA synthesis kit (Bio-Rad). qPCR for NLRP3 and actin (housekeeping gene) was conducted using SYBR green kit (Bio-Rad) along with standard.

AIM2 inflammasome [1] = test: RT-qPCR of AIM2 inflammasome expression in THP-1 macrophages, uninfected or infected; type: cell-based
Method: THP-1 macrophages were differentiated with 50 ng/ml PMA for 24 hours, followed by 24 hours in media prior to infection. Differentiated THP-1 macrophages were infected with M. avium or M. abscessus for 1 hour with an MOI of 5. Infected cells were washed twice, followed by 1 hour of antibiotic treatment with 200 μg/ml of amikacin to remove extracellular bacteria. After the antibiotic treatment step, cells were washed once more and BisEDT (BIZ) was added at the indicated concentrations. The treatments (see Table 2) included: (1) uninfected, (2) uninfected+range of BisEDT, (3) untreated+infected with M. avium, (4) M. avium infected+BIZ, (5) untreated+M. abscessus, and (6) M. abscessus infected+BIZ. The time points for sample preparation were 48 hours post infection. CFUs were determined as described above and RNA was collected from similar experiments.
THP-1 RNA from the cells was isolated using the Rneasy mini kit (Qiagen), followed by treatment with Dnase 1 recombinant (Roche Diagnostics) for 1 hour at 37° C. to remove contaminating genomic DNA. The DNase was inactivated with Turbo DNase-inactivation reagent (Turbo DNA-free kit, Thermo Fisher Scientific) for 2 min at 37° C. Inactivation reagent was removed via centrifugation for 1 min at 10,000×g, and RNA transferred to new collection tubes. RNA samples were stored at […] for future processing. cDNA was transcribed from host RNA using the iScript cDNA synthesis kit (Bio-Rad). The quality of cDNA was tested by PCR with Gold 360 master mix using the manufacturer's specifications (Thermo Fisher Scientific). The RT-qPCR reaction was performed using iQ SYBR Green Supermix (Bio-Rad) and an iCycler (CFX Connect Real-Time Systems, Bio-Rad) as previously described (1). Standard curves for each gene were run in each reaction and used to calculate absolute values of mRNA. Gene expression data are presented as relative expression to beta-actin. Primers (Table 3) were designed in Primer3 using sequences from GenBank (National Center for Biotechnology Information).

[2] = test system: lung tissue of M. abscessus infected mice; test: Lung histopathology in chronic M. abscessus infection study; type: in vivo, SCID/Beige mice
Method: After 28 days of treatment with BisEDT, animals were euthanized by CO2 and secondary cardiac puncture to collect whole blood for quantitation of BisEDT concentration. Lungs and spleens from the CFU mice were homogenized with 1:1 H2O:Dey-Englev neutralizing broth to deactivate BisEDT. CFUs were determined after serial dilution. Mice for histology and the lung pair split, one half in formalin the other half weighed and snap frozen in liquid N2 to determine tissue concentration of BisEDT.
Samples for histology were processed by the Veterinary Diagnostic Laboratory. Slides were stained with hematoxylin-eosin (HE stain) for general pathology as well as a slide for acid-fast stain to highlight the mycobacterial infection in lung tissue.

HUVEC cells = test: Cytokine ELISA in HUVEC cells; type: cell-based, human; conditions: 0.5, 1, 2 or 4 μg/mL, 24 hours, compared to untreated cells
Method: as §1, with “HUVEC” for “A549”, “further ELISA” for “further”, “analysis. On the day of the ELISA assays to determine the expression of each cytokine, cell culture supernatant was thawed, and the assays performed following the manufacturer's instructions.” for “analysis.”, “AIM2” for “NLRP3”

AIM2 inflammasome [3] = test: qPCR of AIM2 in HUVEC cells; type: cell-based, human; conditions: HUVEC cells, 0.5, 1, 2 or 4 μg/mL, 24 hours, compared to untreated cells
Method: as §1, with “HUVEC” for “A549”, “further ELISA” for “further”, “analysis. On the day of the ELISA assays to determine the expression of each cytokine, cell culture supernatant was thawed, and the assays performed following the manufacturer's instructions.” for “analysis.”, “AIM2” for “NLRP3”

C1C[S][Bi]([S]CC[S][Bi]2[S]CC[S]2)[S]1 [BisEDT, 1,2-(Bis(1,3-dithia-2-bismolane)thio)ethane]
NLRP3 expression (NLRP3/Actin copy number) (NLRP3): inhibits NLRP3 expression | AIM2 gene expression relative to beta-actin (AIM2 inflammasome [1]; M. abscessus infected THP-1 cells + 1 μg/ml BisEDT): even greater increase of expression | AIM2 gene expression relative to beta-actin (AIM2 inflammasome [1]; M. avium infected THP-1 cells + BisEDT (2, 4 μg/ml)): did not change the gene expression | AIM2 gene expression relative to beta-actin (AIM2 inflammasome [1]; uninfected THP-1 macrophages, 0.5-4 μg/ml BisEDT, 48 hours): The higher the dose, the more AIM2 gene expression was reduced; also recorded: inhibits AIM2 and NLRP3 inflammasome expression | inflammatory process caused by the test article in lung ([2]; M. abscessus infected, BisEDT treated mice): no indication of an inflammatory process caused by the BisEDT | lung histomorphologic observation ([2]; high-dose (1000 μg/kg/day), FIG. 5D): the inflammatory response was receding and clear airways were observed | lung histomorphologic observation ([2]; low-dose (200 μg/kg/day), FIG. 5C): decrease of inflammatory infiltrate compared to untreated control and a decrease in hemorrhage | expression of IL-18 (HUVEC cells): Consistent reduction | expression of TNF-α (HUVEC cells): Consistent reduction | AIM2 inflammasome expression (AIM2/Actin copy number) (AIM2 inflammasome [3]): inhibit AIM2 inflammasome expression
